Here are results for four molecules from patent US11014955B2, “Cyclic peroxides as prodrugs for selective delivery of agents” (THE REGENTS OF THE UNIVERSITY OF CALIFORNIA, priority 2014, dated 2021).

Format in all cases: cell-based
One test deals with P. falc 3D7. Kind of test: Biological activity EC50, P. falc 3D7. The note with it: Plasmodium falciparum; Target (Cell Line): P. falc 3D7.
Another test concerns P. falc HB3. Description: Biological activity EC50, P. falc HB3. The note with it: Plasmodium falciparum; Target (Cell Line): P. falc HB3.
A further test has as its system P. falc DD2. Kind of test: Biological activity EC50, P. falc DD2. The note with it: Plasmodium falciparum; Target (Cell Line): P. falc DD2.
The next test has as its system P. falc FCB. Description: Biological activity EC50, P. falc FCB. The following applies: Plasmodium falciparum; Target (Cell Line): P. falc FCB.

As for `CCCCN(CCCC)CCC(OC(=O)OC1CCCC2(C1)OOC1(O2)C2CC3CC(C2)CC1C3)c1cc2c(Cl)cc(Cl)cc2c2cc(C(F)(F)F)ccc12` (centres unmarked) [Example 8, 3-(dibutylamino)-1-[1,3-dichloro-6-(trifluoromethyl)phenanthren-9-yl]propyl dispiro[adamantane-2,2′-[1,3,5]trioxolane-4′,1″-cyclohexane]-3″-yl carbonate], the results for the EC50 in the test with P. falc 3D7, with P. falc HB3 and in the test on P. falc DD2 were 21 nM, 8 nM and 15 nM, respectively.

`CN(C)c1cccc2c(S(=O)(=O)OC34CC5CC(C3)C3(OOC6(CCCCC6)O3)C(C5)C4)cccc12` (centres unmarked) [Example 18, dispiro[adamantane-2,2′-[1,3,5]trioxolane-4′,1″-cyclohexane]-7-yl 5-(dimethylamino)naphthalene-1-sulfonate] returned an EC50 with P. falc FCB of 17.9 nM.

As for `O=C1C(O)=C(C2CCC3(CC2)OOC2(O3)C3CC4CC(C3)CC2C4)C(=O)c2ccccc21` (centres unmarked) [Example 10, 2-{dispiro[adamantane-2,2′-[1,3,5]trioxolane-4′,1″-cyclohexane]-4″-yl}-3-hydroxy-1,4-dihydronaphthalene-1,4-dione], the EC50 in the test on P. falc 3D7 came out at 188 nM; in the test with P. falc HB3, 94 nM; in the test on P. falc DD2, 188 nM.

For `CN(C)c1cccc2c(S(=O)(=O)NCCCNC3CCC4(CC3)OOC3(O4)C4CC5CC(C4)CC3C5)cccc12` (centres unmarked) [Example 19, 5-(dimethylamino)-N-[3-({dispiro[adamantane-2,2′-[1,3,5]trioxolane-4′,1″-cyclohexane]-4″-yl}amino)propyl]naphthalene-1-sulfonamide], the EC50 with P. falc FCB came out at 14.6 nM.

For orientation: EC50 means the midpoint of the concentration-response curve. Low readings indicate higher potency in that assay, high ones lower potency in that assay.
